Data taken from patent publication US4927919A, “Chartreusin derivatives and salts thereof” (Ishihara Sangyo Kaisha, Ltd., priority 1985, dated 1990).

Assays:
P-388 leukemia cells = test: Antitumor activity against P-388 leukemia cells (i.p. implanted, i.v. drug); format: in vivo, BDF1 mice; settings: for response vs control in vivo at 20 mg/kg / response vs control in vivo at 40 mg/kg / response vs control in vivo at 60 mg/kg / response vs control in vivo at 30 mg/kg / response vs control in vivo at 80 mg/kg: Mus musculus, P388, iv, 720 h, read-out: T/C of MST; for response vs control in vivo at 20 mg/kg: dose b: 20 mg/kg/d × 3 (days 1, 5, 9); for response vs control in vivo at 40 mg/kg: dose c: 40 mg/kg/d × 3 (days 1, 5, 9); for response vs control in vivo at 60 mg/kg: dose e: 60 mg/kg/d × 3 (days 1, 5, 9); for response vs control in vivo at 30 mg/kg: dose j: 30 mg/kg/d × 3 (days 1, 5, 9)
Procedure: BDF1 mice were implanted intraperitoneally with P-388 leukemia cells at a rate of 1×10^6 cells/mouse, and each drug to be tested was administered intravenously on the first, fifth and ninth days, or on the first and fifth days after the implantation. […] The T/C (%) was calculated based on the following equation: [formula]
The drugs tested were as follows: solutions prepared by dissolving each of compound Nos. 34, 36 and 43 to 46 in physiological saline; suspension or solutions prepared by dissolving each of compound Nos. 35, 38 and 49 to 55 in dimethylacetamide, followed by adding thereto a small amount of a surface active agent (e.g., Tween-80) and then physiological saline; and suspension or solutions prepared by mixing each of the other compounds and a small amount of a surface active agent (e.g., Tween-80), followed by adding thereto physiological saline.

B-16 melanoma [1] = settings: cancer inoculated i.p., drug i.p.; cited from earlier work
[2] = Intestinal excretion percentage of drugs; format: in vivo; settings: DDY mice, i.v. 40 mg/kg-b.w., 2 hours
Procedure: Each drug to be tested was administered to DDY mice intravenously at a dose of 40 mg/kg-b.w., and after 2 hours, contents of the small intestine and the large intestine and feces were extracted with a mixed solvent of chloroform and methanol. The extract was concentrated and each compound to be tested was quantitatively determined by high-speed liquid chromatography.
The drug tested was solution which prepared by dissolving the compound No. 17 in a small amount of dimethylacetoamide, followed by adding thereto a small amount of a surface active agent (e.g., Tween-80 ) and physiological saline.

[3] = in vivo; cited from earlier work
P-388 leukemia = settings: cancer inoculated i.p., drug i.p.; cited from earlier work
L-1210 leukemia = settings: cancer inoculated i.p., drug i.p.; cited from earlier work
cancer = settings: different sites; cited from earlier work
[4] = Acute toxicity (LD50, single intravenous administration); set-up: species or system day mice; settings: mouse, in vivo, mice, single i.v.
Text: In Table 15 are shown acute toxicity values (LD50, mg/kg) in day mice in the case of intravenously administering (once) each of the compounds of this invention in the form of preparations shown in the Preparation Examples shown in Table 16.

L-1210 leukemia cells = test: Antitumor activity against L-1210 leukemia cells (i.p. implanted, i.v. drug); format: in vivo, BDF1 mice; settings: 30-day observation
Procedure: BDF1 mice were implanted intraperitoneally with L-1210 leukemia cells at a rate of 1×10^5 cells/mouse, and each drug to be tested was administered intravenously on the first, fifth and ninth days after the implantation. […] The T/C (%) was calculated in the same manner as aforementioned (1--1).
The drugs tested were suspensions or solutions which prepared by mixing each compound to be tested and a small amount of a surface active agent (e.g., Tween-80), followed by adding thereto physiological saline.

B-16 melanoma [5] = test: Antitumor activity against B-16 melanoma (i.v. drug); format: in vivo, BDF1 mice; settings: 60-day observation
Procedure: BDF1 mice were implanted intraperitoneally with a B-16 melanoma cell suspension in an amount of 0.5 ml/mouse, and each drug to be tested was administered intravenously on the first, fifth and ninth days after the implantion. […] The T/C (%) was calculated in the same manner as aforementioned (1--1).
The B-16 melanoma cell suspension was prepared as follows. Tumor fragment, maintained by subcutaneous passages in C57BL/6 mice, were aseptically removed and passed through a sterile stainless-steel mesh. Thus obtained tumor was dispersed in a culture medium or physiological saline in an amount of 9 ml per 1 g of tumor.

[6] = i.v., dose f: 80 mg/kg/d × 3 (days 1, 5, 9), 30-day observation

| Structure (SMILES) | response vs control in vivo at 20 mg/kg (P-388 leukemia cells; i.v., 30-day observation) [%] | response vs control in vivo at 40 mg/kg (P-388 leukemia cells; i.v., 30-day observation) [%] | LD50 ([4]; Preparation Example 2) [mg/kg] | T/C (%) of MST (B-16 melanoma [5]; 60 mg/kg × 3 (days 1, 5, 9)) [%] | LD50 ([4]; Preparation Example 1) [mg/kg] | other results |
| --- | --- | --- | --- | --- | --- | --- |
| CO[C@H]1[C@@H](O)[C@@H](C)O[C@H](O[C@H]2[C@H](Oc3cccc4c(O)c5c(=O)oc6ccc(C)c7c(=O)oc(c34)c5c67)O[C@H](C)[C@H](O)[C@@H]2O)[C@@H]1O [Chartreusin, chartreusin] |  |  |  |  |  | T/C (%) (P-388 leukemia cells; comparison, chartreusin suspension in 0.2M Na2HPO4 / N,N-dimethylacetamide (4:1)): 105%; effect against B-16 melanoma (in words) (B-16 melanoma [1]): effective; Intestinal excretion percentage [(total amount of excretion/dose) × 100] [2]: 37.6%; biliary excretion relative to absorption to tissues (in words) [3]: biliary excretion of chartreusin essentially has the precedence over absorption thereof to tissues; effect against P-388 leukemia (in words) (P-388 leukemia): effective; effect against L-1210 leukemia (in words) (L-1210 leukemia): effective; effect when site of cancer inoculation and site of administration were different (in words) (cancer): not effective at all |
| COC1C(O)C(C)OC(OC2C(Oc3cccc4c(OC(=O)c5cccn5C)c5c(=O)oc6ccc(C)c7c(=O)oc(c34)c5c67)OC(C)C3OC(c4ccccc4)OC32)C1O (stereo not drawn) [Compound 2] | 189 | 230 | ≥ 60 | 141 |  | T/C (%) MST (L-1210 leukemia cells; 40 mg/kg × 3 (days 1, 5, 9)): 243% |
| COC1C(O)C(C)OC(OC2C(Oc3cccc4c(OC(=O)c5ccco5)c5c(=O)oc6ccc(C)c7c(=O)oc(c34)c5c67)OC(C)C3OC(c4ccccc4)OC32)C1O (stereo not drawn) [Compound 6] | 199 | 217 | ≥ 60 | 159 |  |  |
| COC1C(O)C(C)OC(OC2C(Oc3cccc4c(OC(=O)c5cccs5)c5c(=O)oc6ccc(C)c7c(=O)oc(c34)c5c67)OC(C)C3OC(C)(C)OC32)C1O (stereo not drawn) [Compound 10] |  | 162 |  |  |  | T/C of MST (P-388 leukemia cells; [6]): 207%; LD50 ([4]; Preparation Example 4): ≥ 80 mg/kg; T/C (%) MST (L-1210 leukemia cells; 80 mg/kg × 3 (days 1, 5, 9)): 140% |
| COC1C(O)C(C)OC(OC2C(Oc3cccc4c(OC(=O)c5cccs5)c5c(=O)oc6ccc(C)c7c(=O)oc(c34)c5c67)OC(C)C3OC(c4ccccc4)OC32)C1O (stereo not drawn) [Compound 11, 6-O-(2-thienyl-carbonyl)-3',4'-O-benzylidene-chartreusin] | 217 |  | ≥ 60 | 143 |  |  |
| COC1C(O)C(C)OC(OC2C(Oc3cccc4c(OC(=O)c5c(-c6ccccc6)noc5C)c5c(=O)oc6ccc(C)c7c(=O)oc(c34)c5c67)OC(C)C3OC(c4ccccc4)OC32)C1O (stereo not drawn) [Compound 14, 6-O-{4-(5-methyl-3-phenylisoxazolyl)-carbonyl}-3',4'-O-benzylidene-chartreusin] | 207 | 250 |  | 143 | ≥ 60 | T/C (%) MST (L-1210 leukemia cells; 40 mg/kg × 3 (days 1, 5, 9)): 208% |
| COC1C(O)C(C)OC(OC2C(Oc3cccc4c(OC(=O)c5cc6ccccc6[nH]5)c5c(=O)oc6ccc(C)c7c(=O)oc(c34)c5c67)OC(C)C3OC(c4ccccc4)OC32)C1O (stereo not drawn) [Compound 17, 6-O-(2-indolyl-carbonyl)-3',4'-O-benzylidene-chartreusin] | 199 | 255 |  | 141 | ≥ 60 | Intestinal excretion percentage [(total amount of excretion/dose) × 100] [2]: 5.4%; T/C (%) MST (L-1210 leukemia cells; 40 mg/kg × 3 (days 1, 5, 9)): 181% |
| CCn1cc(C(=O)Oc2c3cccc(OC4OC(C)C5OC(c6ccccc6)OC5C4OC4OC(C)C(O)C(OC)C4O)c3c3oc(=O)c4c(C)ccc5oc(=O)c2c3c54)c(=O)c2ccc(C)nc21 (stereo not drawn) [Compound 33, 6-O-{3-(1,4-dihydro-1-ethyl-7-methyl-4-oxo-1,8-naphthyridinyl)-carbonyl}-3',4'-O-benzylidene-chartreusin] | 218 | 274 |  |  | ≥ 40 | T/C (%) of MST (B-16 melanoma [5]; 40 mg/kg × 3 (days 1, 5, 9)): 142% |
| CCn1cc(C(=O)Oc2c3cccc(OC4OC(C)C5OC(c6ccccc6)OC5C4OC4OC(C)C(O)C(OC)C4O)c3c3oc(=O)c4c(C)ccc5oc(=O)c2c3c54)c(=O)c2cnc(N3CCCC3)nc21 (stereo not drawn) [Compound 105] |  |  | ≥ 60 |  |  | response vs control in vivo at 60 mg/kg (P-388 leukemia cells; i.v., 30-day observation): 256%; response vs control in vivo at 30 mg/kg (P-388 leukemia cells; i.v., 30-day observation): 165% |
| CCn1cc(C(=O)Oc2c3cccc(OC4OC(C)C5OC(c6ccccc6)OC5C4OC4OC(C)C(O)C(OC)C4O)c3c3oc(=O)c4c(C)ccc5oc(=O)c2c3c54)c(=O)c2cnc(N3CCNCC3)nc21 (stereo not drawn) [Compound 106] |  |  |  |  | ≥ 60 | response vs control in vivo at 60 mg/kg (P-388 leukemia cells; i.v., 30-day observation): 244%; response vs control in vivo at 30 mg/kg (P-388 leukemia cells; i.v., 30-day observation): 188% |
| CCn1cc(C(=O)Oc2c3cccc(OC4OC(C)C5OC(C)(C)OC5C4OC4OC(C)C(O)C(OC)C4O)c3c3oc(=O)c4c(C)ccc5oc(=O)c2c3c54)c(=O)c2ccc(C)nc21 (stereo not drawn) [Compound 107] |  |  |  |  |  | response vs control in vivo at 80 mg/kg (P-388 leukemia cells; [6]): 134%; LD50 ([4]; Preparation Example 4): ≥ 80 mg/kg |
| CCn1cc(C(=O)Oc2c3cccc(OC4OC(C)C5OC(c6ccccc6)OC5C4OC4OC(C)C(O)C(OC)C4O)c3c3oc(=O)c4c(C)ccc5oc(=O)c2c3c54)c(=O)c2ccc(C)nc21 (stereo not drawn) [Compound 108] |  |  |  |  |  | response vs control in vivo at 80 mg/kg (P-388 leukemia cells; [6]): 158%; LD50 ([4]; Preparation Example 4): ≥ 80 mg/kg |
